Test results reported in patent US9993459B2, “Selective HDAC6 inhibitors and uses thereof” (Universiteit Gent, priority 2015, dated 2018).
Where “and” joins values, the source holds several entries; their conditions need not be identical. Equal entries are not always repeated.

What was measured:
HDAC11 = molecular target: T1, HDAC11 (Homo sapiens, UniProt Q96DB2); test: In vitro HDAC isozyme selectivity screen: HDAC11; assay type: biochemical; details: Table 2
T1 sequence (Q96DB2 1-347): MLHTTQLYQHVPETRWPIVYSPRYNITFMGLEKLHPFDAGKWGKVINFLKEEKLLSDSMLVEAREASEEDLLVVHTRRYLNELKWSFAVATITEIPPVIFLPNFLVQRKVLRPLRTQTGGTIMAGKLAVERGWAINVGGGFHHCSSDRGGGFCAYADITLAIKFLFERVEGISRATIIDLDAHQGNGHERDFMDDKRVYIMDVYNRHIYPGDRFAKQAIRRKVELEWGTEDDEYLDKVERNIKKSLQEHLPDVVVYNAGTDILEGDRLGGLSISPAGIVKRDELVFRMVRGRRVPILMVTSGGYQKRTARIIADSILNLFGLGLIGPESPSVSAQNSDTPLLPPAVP

HDAC8 = molecular target: T2, HDAC8 (Homo sapiens, UniProt Q9BY41); test: In vitro HDAC isozyme selectivity screen: HDAC8; assay type: biochemical; details: for IC50: Table 2
T2 sequence (Q9BY41 1-377): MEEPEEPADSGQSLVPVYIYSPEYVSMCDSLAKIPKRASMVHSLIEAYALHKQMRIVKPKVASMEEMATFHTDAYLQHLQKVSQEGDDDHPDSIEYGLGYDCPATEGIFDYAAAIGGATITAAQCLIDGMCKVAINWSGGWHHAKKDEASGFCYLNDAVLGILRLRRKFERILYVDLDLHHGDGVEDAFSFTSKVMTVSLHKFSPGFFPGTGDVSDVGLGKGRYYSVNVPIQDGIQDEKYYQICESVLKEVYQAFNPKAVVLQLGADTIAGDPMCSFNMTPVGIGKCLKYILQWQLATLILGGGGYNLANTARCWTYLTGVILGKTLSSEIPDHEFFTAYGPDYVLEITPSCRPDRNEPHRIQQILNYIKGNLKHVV

HDAC1 = HDAC1 (Homo sapiens, UniProt Q13547); test: In vitro HDAC isozyme selectivity screen: HDAC1; assay type: biochemical; details: for IC50: Table 2
Chain of HDAC1 (Q13547 whole entry, species assumed): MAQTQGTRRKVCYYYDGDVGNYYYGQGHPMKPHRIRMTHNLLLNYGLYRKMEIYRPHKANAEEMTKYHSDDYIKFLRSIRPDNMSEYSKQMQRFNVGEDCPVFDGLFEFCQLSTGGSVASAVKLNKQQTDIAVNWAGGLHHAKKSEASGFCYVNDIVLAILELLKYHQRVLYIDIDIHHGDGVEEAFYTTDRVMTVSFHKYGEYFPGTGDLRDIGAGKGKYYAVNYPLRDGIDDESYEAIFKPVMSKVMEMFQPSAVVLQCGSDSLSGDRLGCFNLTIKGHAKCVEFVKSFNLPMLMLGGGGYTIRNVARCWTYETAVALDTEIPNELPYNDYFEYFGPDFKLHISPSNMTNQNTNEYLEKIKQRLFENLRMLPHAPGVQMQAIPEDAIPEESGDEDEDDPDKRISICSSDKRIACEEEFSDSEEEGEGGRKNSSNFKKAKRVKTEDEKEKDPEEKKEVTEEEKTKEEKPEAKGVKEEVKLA

HDAC5 = HDAC5 (Homo sapiens, UniProt Q9UQL6); test: In vitro HDAC isozyme selectivity screen: HDAC5; assay type: biochemical; details: for IC50: Table 2
Chain of HDAC5 (Q9UQL6 whole entry, species assumed): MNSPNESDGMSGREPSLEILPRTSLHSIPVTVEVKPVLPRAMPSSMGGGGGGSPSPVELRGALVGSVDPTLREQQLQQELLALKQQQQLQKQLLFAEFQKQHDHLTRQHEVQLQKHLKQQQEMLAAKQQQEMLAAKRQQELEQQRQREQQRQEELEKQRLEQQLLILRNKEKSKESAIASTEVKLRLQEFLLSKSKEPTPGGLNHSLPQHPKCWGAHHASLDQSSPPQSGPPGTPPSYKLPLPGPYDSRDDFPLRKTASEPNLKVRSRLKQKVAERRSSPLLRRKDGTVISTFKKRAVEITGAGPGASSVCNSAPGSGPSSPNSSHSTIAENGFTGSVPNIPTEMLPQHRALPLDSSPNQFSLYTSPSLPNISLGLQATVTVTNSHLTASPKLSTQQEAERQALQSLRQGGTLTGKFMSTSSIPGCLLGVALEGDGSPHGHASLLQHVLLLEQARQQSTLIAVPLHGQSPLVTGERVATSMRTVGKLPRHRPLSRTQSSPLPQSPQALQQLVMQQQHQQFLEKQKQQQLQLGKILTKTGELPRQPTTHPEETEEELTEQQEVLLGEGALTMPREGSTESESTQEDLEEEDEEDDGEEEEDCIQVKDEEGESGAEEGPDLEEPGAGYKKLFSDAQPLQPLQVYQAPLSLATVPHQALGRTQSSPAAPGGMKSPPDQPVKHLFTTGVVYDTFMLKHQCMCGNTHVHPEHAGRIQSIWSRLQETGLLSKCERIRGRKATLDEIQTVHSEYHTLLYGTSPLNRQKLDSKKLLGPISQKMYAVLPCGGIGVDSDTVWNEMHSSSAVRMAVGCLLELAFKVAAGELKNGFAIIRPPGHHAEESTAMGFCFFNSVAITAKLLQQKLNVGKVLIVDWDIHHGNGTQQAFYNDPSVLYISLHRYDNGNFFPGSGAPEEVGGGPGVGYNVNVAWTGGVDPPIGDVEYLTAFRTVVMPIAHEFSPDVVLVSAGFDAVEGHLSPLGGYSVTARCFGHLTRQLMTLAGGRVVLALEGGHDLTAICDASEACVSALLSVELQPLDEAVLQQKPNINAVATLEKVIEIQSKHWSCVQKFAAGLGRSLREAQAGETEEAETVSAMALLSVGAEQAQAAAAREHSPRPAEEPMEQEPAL

HDAC10 = molecular target: T3, HDAC10 (Homo sapiens, UniProt Q969S8); test: In vitro HDAC isozyme selectivity screen: HDAC10; assay type: biochemical; details: Table 2
T3 sequence (Q969S8 1-669): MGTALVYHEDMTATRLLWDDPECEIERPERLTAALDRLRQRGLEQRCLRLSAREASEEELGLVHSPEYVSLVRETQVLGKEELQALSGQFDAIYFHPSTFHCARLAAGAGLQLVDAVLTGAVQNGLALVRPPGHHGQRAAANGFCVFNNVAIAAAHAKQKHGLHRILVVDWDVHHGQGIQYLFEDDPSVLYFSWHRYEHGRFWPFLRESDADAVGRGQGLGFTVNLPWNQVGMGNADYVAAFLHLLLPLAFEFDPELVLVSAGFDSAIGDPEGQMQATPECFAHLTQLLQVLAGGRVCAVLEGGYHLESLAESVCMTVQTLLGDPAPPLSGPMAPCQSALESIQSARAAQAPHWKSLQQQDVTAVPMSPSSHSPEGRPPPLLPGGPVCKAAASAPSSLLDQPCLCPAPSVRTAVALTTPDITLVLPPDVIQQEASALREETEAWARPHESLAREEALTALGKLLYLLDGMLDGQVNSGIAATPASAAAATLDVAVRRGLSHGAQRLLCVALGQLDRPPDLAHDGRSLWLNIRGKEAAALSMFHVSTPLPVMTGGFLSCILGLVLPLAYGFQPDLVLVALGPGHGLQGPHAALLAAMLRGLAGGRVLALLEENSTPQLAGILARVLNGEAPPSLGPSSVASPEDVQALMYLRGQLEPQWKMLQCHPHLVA

HDAC2 = HDAC2 (Homo sapiens, UniProt Q92769); test: In vitro HDAC isozyme selectivity screen: HDAC2; assay type: biochemical; details: for IC50: Table 2
Chain of HDAC2 (Q92769 whole entry, species assumed): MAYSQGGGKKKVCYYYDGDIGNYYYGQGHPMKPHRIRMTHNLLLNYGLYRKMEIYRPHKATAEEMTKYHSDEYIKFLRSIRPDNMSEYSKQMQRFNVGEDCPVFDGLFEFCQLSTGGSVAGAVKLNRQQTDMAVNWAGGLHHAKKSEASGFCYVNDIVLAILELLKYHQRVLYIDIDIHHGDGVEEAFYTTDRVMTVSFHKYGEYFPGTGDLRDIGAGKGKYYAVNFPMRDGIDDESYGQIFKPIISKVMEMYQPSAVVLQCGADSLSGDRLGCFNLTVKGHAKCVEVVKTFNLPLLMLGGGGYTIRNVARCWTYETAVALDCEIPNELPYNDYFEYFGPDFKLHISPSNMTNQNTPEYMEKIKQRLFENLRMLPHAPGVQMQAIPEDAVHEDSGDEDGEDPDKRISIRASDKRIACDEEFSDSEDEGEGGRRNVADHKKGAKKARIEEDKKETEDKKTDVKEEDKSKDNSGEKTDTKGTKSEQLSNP

HDAC9 = HDAC9 (Homo sapiens, UniProt Q9UKV0); test: In vitro HDAC isozyme selectivity screen: HDAC9; assay type: biochemical; details: for IC50: Table 2
Chain of HDAC9 (Q9UKV0 whole entry, species assumed): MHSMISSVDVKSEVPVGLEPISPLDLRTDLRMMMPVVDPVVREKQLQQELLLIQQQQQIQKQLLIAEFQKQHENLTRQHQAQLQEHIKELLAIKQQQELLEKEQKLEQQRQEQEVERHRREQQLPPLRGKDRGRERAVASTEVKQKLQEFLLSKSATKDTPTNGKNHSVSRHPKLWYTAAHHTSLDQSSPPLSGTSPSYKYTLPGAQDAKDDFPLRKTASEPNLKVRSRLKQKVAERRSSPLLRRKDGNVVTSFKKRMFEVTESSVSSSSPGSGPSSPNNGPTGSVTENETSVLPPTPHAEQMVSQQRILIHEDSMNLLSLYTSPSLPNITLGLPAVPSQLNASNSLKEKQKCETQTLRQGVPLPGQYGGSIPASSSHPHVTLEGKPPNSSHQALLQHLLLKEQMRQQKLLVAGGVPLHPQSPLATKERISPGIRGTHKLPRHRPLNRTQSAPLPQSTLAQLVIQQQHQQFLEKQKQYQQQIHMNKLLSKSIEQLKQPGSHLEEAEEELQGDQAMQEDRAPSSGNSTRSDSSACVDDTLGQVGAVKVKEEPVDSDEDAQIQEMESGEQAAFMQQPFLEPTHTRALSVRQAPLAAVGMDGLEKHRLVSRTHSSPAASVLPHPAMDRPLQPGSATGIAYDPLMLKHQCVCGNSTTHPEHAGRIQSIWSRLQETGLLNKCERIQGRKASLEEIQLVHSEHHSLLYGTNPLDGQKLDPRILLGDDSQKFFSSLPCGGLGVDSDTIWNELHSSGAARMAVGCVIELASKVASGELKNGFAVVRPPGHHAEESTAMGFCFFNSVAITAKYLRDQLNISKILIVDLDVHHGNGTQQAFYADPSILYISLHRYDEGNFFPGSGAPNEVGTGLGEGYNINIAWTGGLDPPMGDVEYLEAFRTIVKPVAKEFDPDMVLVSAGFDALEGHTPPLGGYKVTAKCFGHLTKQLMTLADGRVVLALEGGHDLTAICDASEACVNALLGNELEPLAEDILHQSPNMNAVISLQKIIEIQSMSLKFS

[1] = tested on: acetylation of α-tubulin in Neuro-2a cells; test: Acetylation level of α-tubulin in Neuro-2a cells (Western blot); assay type: cell-based, Mouse; details: for normalized ratio Acetyl α-Tubulin/α-Tubulin against Tubastatin A, Average: Average of N = 1 to 4; for effect on the acetylation level of α-tubulin compared with Tubastatin A: Neuro-2a cells, in words
Method: FIG. 1: Potency of inhibiting HDAC6 by compounds 7a, 7b and 13a in Neuro-2a cells. A. Cells were treated overnight with different concentrations of the HDAC6 inhibitors and blotted of the acetylation of α-tubulin.
Mouse neuroblastoma (Neuro-2a) cells were grown in a 1:1 mix of D-MEM (Dulbecco's Modified Eagle Medium) and F12 medium supplemented with glutamax (Invitrogen), 100 μg/ml streptomycin, 100 U/ml penicillin (Invitrogen), 10% fetal calf serum (Greiner Bio-one), 1% non-essential amino acids (Invitrogen) and 1.6% NaHCO3 (Invitrogen) at 37° C. and 7.5% CO2. To split the cells, cells were washed with Versene (Invitrogen) and dissociated with 0.05% Trypsine-EDTA (Invitrogen).
For sodium dodecyl sulfate-polyacrylamide gel electrophoresis (SDS-PAGE) analysis, transfected cells were collected using the EpiQuik Total Histone Extraction Kit (EpiGentek) according to manufacturer's instructions. Protein concentrations were determined using microBCA kit (Thermo Fisher Scientific Inc., Pittsburgh, Pa., USA) according to manufacturer's instructions. Before resolving the samples on a 12% SDS-PAGE gel, samples containing equal amounts of protein were supplemented with reducing sample buffer (Thermo Scientific) and boiled at 95° C. for 5 min. After electrophoresis, the proteins were transferred to a polyvinylidene difluoride (PVDF) membrane (Millipore Corp., Bedford, Mass., USA). The non-specific binding was blocked by incubation of the membrane in 5% bovine serum albumin (BSA), diluted in Tris Buffered Saline Tween (TBST, 50 mM TRIS, 150 mM NaCl, 0.1% Tween-20 (Applichem, Darmstadt, Duitsland) for 1 h at room temperature followed by incubation with primary antibodies overnight. The antibodies, diluted in TBS-T, were directed against α-tubulin (1/5000, T6199, Sigma-Aldrich), and acetylated α-tubulin (1/5000, T6793 monoclonal, Sigma-Aldrich). The secondary antibodies, coupled to alkaline phosphatase (anti-mouse or anti-rabbit, 1/5000, Sigma-Aldrich) were used. Blots were visualised by adding the ECF substrate (Enhanced Chemical Fluorescence, GE Healthcare, Uppsala, Sweden) and imaged with the ImageQuant_LAS 4000. A mild reblotting buffer (Millipore) was applied to strip the blots. ImageQuant TL version 7.0-software was used to quantify the blots.
Neuro-2a cells were treated overnight with different concentrations of the HDAC6 inhibitors and the effect on the acetylation level of α-tubulin was determined using Western blots (FIG. 1).

Row | SMILES | IC50 (HDAC11) [µM] | IC50 (HDAC8) [µM] | IC50 (HDAC1) [µM] | IC50 (HDAC5) [µM] | IC50 (HDAC10) [µM] | IC50 (HDAC2) [µM] | IC50 (HDAC9) [µM] | normalized ratio Acetyl α-Tubulin/α-Tubulin against Tubastatin A, Average ([1]; 10 nM, overnight, Neuro-2a) | normalized ratio Acetyl α-Tubulin/α-Tubulin against Tubastatin A, Average ([1]; 50 nM, overnight, Neuro-2a) | normalized ratio Acetyl α-Tubulin/α-Tubulin against Tubastatin A, Average ([1]; 100 nM, overnight, Neuro-2a) | normalized ratio Acetyl α-Tubulin/α-Tubulin against Tubastatin A, Average ([1]; 500 nM, overnight, Neuro-2a) | normalized ratio Acetyl α-Tubulin/α-Tubulin against Tubastatin A, Average ([1]; 1 μM, overnight, Neuro-2a) | effect on the acetylation level of α-tubulin compared with Tubastatin A [1] | selectivity for HDAC6 over HDAC8 (HDAC8; HDAC8 vs HDAC6 IC50) [fold] | effect at 100 μM, HDAC1 (HDAC1; 100 μM) | effect at 100 μM, HDAC5 (HDAC5; 100 μM) | effect at 100 μM, HDAC2 (HDAC2; 100 μM) | effect at 100 μM, HDAC9 (HDAC9; 100 μM) | normalized ratio Acetyl α-Tubulin/α-Tubulin against Tubastatin A ([1]; 1 μM, overnight, Neuro-2a, single experiments N = 1 to 4, Tub A 1 μM = 100)
1 | O=C(NO)c1ccc(NCc2csc3ccccc23)cc1 [Compound 7a, 3-[(4-hydroxycarbamoylphenyl)aminomethyl]benzothiophene] | 31 | 1.4 | 7.5 | 17 | 9.9 | 30 | 7.1 | 24.02 | 46.70 | 67.40 | 139.23 | 90.45 | same effect on the acetylation level of α-tubulin as Tubastatin A |  |  |  |  |  | 
2 | O=C(NO)c1ccc(NCc2csc3ccc(Br)cc23)cc1 [Compound 7b, 5-bromo-3-[(4-hydroxycarbamoylphenyl)aminomethyl]-benzothiophene] | 15 | 2.1 |  | > 100 | 33 | > 100 | > 100 | 8.35 | 15.75 | 27.24 | 63.70 | 83.19 | same effect on the acetylation level of α-tubulin as Tubastatin A | 57 | less than 50% | less than 50% | less than 50% | less than 50% | 99.53 and 83.22 and 69.97 and 80.03
3 | O=C(NO)c1ccc(NCc2csc3cc(Br)ccc23)cc1 [Compound 13a, 6-bromo-3-[(4-hydroxycarbamoylphenyl)aminomethyl]-benzothiophene] | 1.2 | 1.9 | 3.4 | 45 | 7.6 | 20 | 25 | 8.35 | 13.93 | 23.21 | 69.97 | 80.44 |  |  |  |  |  |  | 
